Data published in US12371454B2, “Cyclic peptide compound having Kras inhibitory action” (priority 2019, dated 2025).
Starred links: 1 amine or outer side, 2 acyl side, 3 side chain; linkers in the order of their positions; H or OH if unused. Positions of bridges follow the written chain, without caps; N, C: chain ends. Non-standard residues stand in square brackets, D forms with d. Residues, ends and D or L forms follow the SMILES beside them. *: point of attachment. hPhe(3-Cl-4-CF3) = N[C@@H](CCc1ccc(C(F)(F)F)c(Cl)c1)C(=O)O; X88 = O=C([C@H](CCc1ccc(OC(F)(F)F)c(Cl)c1)N[*:1])[*:2]; X58 = O=C([C@H](CCc1ccc(OC(F)(F)F)c(F)c1)N[*:1])[*:2]; X60 = CC(C)Oc1cc(CC[C@H](N[*:1])C(=O)[*:2])cc(Cl)c1Cl; X74 = O=C([C@H](CCc1cc(Cl)c(Cl)c(Cl)c1)N[*:1])[*:2]; X16 = Cn1ccc2ccc(CC[C@H](N[*:1])C(=O)[*:2])cc21; X44 = O=C([C@H](CCc1ccc2ncccc2c1)N[*:1])[*:2]; X86 = O=C([C@H](CCc1ccc2occc2c1)N[*:1])[*:2]; NMePhe(4-Me) = CN[C@@H](Cc1ccc(C)cc1)C(=O)O; NMeGly(cPent) = CN[C@H](C(=O)O)C1CCCC1; NMeCha = CN[C@@H](CC1CCCCC1)C(=O)O; NMeAhp(2) = CCCCC[C@H](NC)C(=O)O; NMeChg = CN[C@H](C(=O)O)C1CCCCC1; NMeI = CC[C@H](C)[C@H](NC)C(=O)O; X61 = O=C(CN(CC1COC1)[*:1])[*:2]; NMeD = CN[C@@H](CC(=O)O)C(=O)O; NMeL = CN[C@@H](CC(C)C)C(=O)O; NMeNle = CCCC[C@H](NC)C(=O)O; NMeV = CN[C@H](C(=O)O)C(C)C; NMeS = CN[C@@H](CO)C(=O)O; Morpholide = C1CN(*)CCO1; NMeA = CN[C@@H](C)C(=O)O; Piperidide = C1CCN(*)CC1; Pyrrolidide = C1CCN(*)C1; Ac5c = NC1(C(=O)O)CCCC1; Aze = O=C(O)[C@@H]1CCN1; Sar = CNCC(=O)O; Propyl = CCC*

The molecules below were run on Human pancreatic cancer cell line AsPC-1 (assay: Measurement of AsPC-1 cell growth inhibition (AsPC-1 CGI)). Conditions: 96 h.
Assay type: cell-based
Summary of the method: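 AsPC-1 cells in 15% FBS RPMI-1640 were exposed to test compound for 96 hours at 37° C, with CellTiter-Glo as endpoint.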

Row | Compound | IC50 [nM]
1 | CCCCC[C@H]1C(=O)N(C)CC(=O)N[C@@H](CCc2ccc(C(F)(F)F)c(Cl)c2)C(=O)N2CCC[C@H]2C(=O)NC2(CCCC2)C(=O)N(C)[C@@H](C(C)C)C(=O)N(C)[C@H](C(=O)N2CCCCC2)CC(=O)N(C)[C@@H](CC(C)C)C(=O)N[C@@H]([C@@H](C)CC)C(=O)N(C)[C@@H](C)C(=O)N2CC[C@H]2C(=O)N1C [Compound 1854] ([NMeL]I[NMeA][Aze][NMeAhp(2)][Sar][hPhe(3-Cl-4-CF3)]P[Ac5c][NMeV][NMeD]-Piperidide; lactam N-11) | 100 to 500
2 | CCCC[C@H]1C(=O)N(C)[C@H](C(=O)N2CCCCC2)CC(=O)N(C)[C@@H](CC(C)C)C(=O)N[C@@H]([C@@H](C)CC)C(=O)N(C)[C@@H](C)C(=O)N2CC[C@H]2C(=O)N(C)[C@@H](CC2CCCCC2)C(=O)N(C)CC(=O)N[C@@H](CCc2ccc(C(F)(F)F)c(Cl)c2)C(=O)N2CCC[C@H]2C(=O)NC2(CCCC2)C(=O)N1C [Compound 1859] ([NMeL]I[NMeA][Aze][NMeCha][Sar][hPhe(3-Cl-4-CF3)]P[Ac5c][NMeNle][NMeD]-Piperidide; lactam N-11) | 100 to 500
3 | CC[C@H](C)[C@@H]1NC(=O)[C@H]([C@@H](C)CC)N(C)C(=O)C[C@@H](C(=O)N2CCCCC2)N(C)C(=O)[C@H](C(C)C)N(C)C(=O)C2(CCCC2)NC(=O)[C@@H]2CCCN2C(=O)[C@H](CCc2ccc(C(F)(F)F)c(Cl)c2)NC(=O)CN(C)C(=O)[C@H](CC2CCCCC2)N(C)C(=O)[C@@H]2CCN2C(=O)[C@H](C)N(C)C1=O [Compound 1863] ([NMeI]I[NMeA][Aze][NMeCha][Sar][hPhe(3-Cl-4-CF3)]P[Ac5c][NMeV][NMeD]-Piperidide; lactam N-11) | 100 to 500
4 | CC[C@H](C)[C@@H]1NC(=O)[C@H](CC(C)C)N(C)C(=O)C[C@@H](C(=O)N2CCCC2)N(C)C(=O)[C@H](C(C)C)N(C)C(=O)C2(CCCC2)NC(=O)[C@@H]2CCCN2C(=O)[C@H](CCc2ccc(C(F)(F)F)c(Cl)c2)NC(=O)CN(C)C(=O)[C@H](Cc2ccc(C)cc2)N(C)C(=O)[C@@H]2CCN2C(=O)[C@H](C)N(C)C1=O [Compound 1866] ([NMeL]I[NMeA][Aze][NMePhe(4-Me)][Sar][hPhe(3-Cl-4-CF3)]P[Ac5c][NMeV][NMeD]-Pyrrolidide; lactam N-11) | 100 to 500
5 | CCCOC[C@H]1C(=O)N(C)CC(=O)N[C@@H](CCc2ccc(C(F)(F)F)c(Cl)c2)C(=O)N2CCC[C@H]2C(=O)NC2(CCCC2)C(=O)N(C)[C@@H](C2CCCCC2)C(=O)N(C)[C@H](C(=O)N2CCOCC2)CC(=O)N(C)[C@@H](CC(C)C)C(=O)N[C@@H]([C@@H](C)CC)C(=O)N(C)CC(=O)N(C)CC(=O)N1C [Compound 1966] ([NMeL]I[Sar][Sar][NMeS](Propyl)[Sar][hPhe(3-Cl-4-CF3)]P[Ac5c][NMeChg][NMeD]-Morpholide; lactam N-11) | 50 to 100
6 | CC[C@H](C)[C@@H]1NC(=O)[C@H](CC(C)C)N(C)C(=O)C[C@@H](C(=O)N2CCCCC2)N(C)C(=O)[C@H](C2CCCCC2)N(C)C(=O)C2(CCCC2)NC(=O)CN(CC2COC2)C(=O)[C@H](CCc2ccc(C(F)(F)F)c(Cl)c2)NC(=O)CN(C)C(=O)[C@H](CC2CCCCC2)N(C)C(=O)CN(C)C(=O)CN(C)C1=O [Compound 2031] ([NMeL]I[Sar][Sar][NMeCha][Sar][hPhe(3-Cl-4-CF3)][X61][Ac5c][NMeChg][NMeD]-Piperidide; lactam N-11) | 100 to 500
7 | CC[C@H](C)[C@@H]1NC(=O)[C@H](CC(C)C)N(C)C(=O)C[C@@H](C(=O)N2CCCCC2)N(C)C(=O)[C@H](C2CCCC2)N(C)C(=O)C2(CCCC2)NC(=O)[C@@H]2CCCN2C(=O)[C@H](CCc2ccc(OC(F)(F)F)c(Cl)c2)NC(=O)CN(C)C(=O)[C@H](CC2CCCCC2)N(C)C(=O)[C@@H]2CCN2C(=O)[C@H](C)N(C)C1=O [Compound 2057] ([NMeL]I[NMeA][Aze][NMeCha][Sar][X88]P[Ac5c][NMeGly(cPent)][NMeD]-Piperidide; lactam N-11) | 50 to 100
8 | CC[C@H](C)[C@@H]1NC(=O)[C@H](C)N(C)C(=O)C[C@@H](C(=O)N2CCCCC2)N(C)C(=O)[C@H](C2CCCCC2)N(C)C(=O)C2(CCCC2)NC(=O)[C@@H]2CCCN2C(=O)[C@H](CCc2cc(Cl)c(Cl)c(Cl)c2)NC(=O)CN(C)C(=O)[C@H](CC2CCCCC2)N(C)C(=O)CN(C)C(=O)CN(C)C1=O [Compound 2059, (3S,9S,18S,21S,25S,28S,34S)-28-cyclohexyl-9-(cyclohexylmethyl)-7,10,13,16,21,22,26,29-octamethyl-18-[(1S)-1-methylpropyl]-25-(piperidine-1-carbonyl)-3-[2-(3,4,5-trichlorophenyl)ethyl]spiro[1,4,7,10,13,16,19,22,26,29,32-undecazabicyclo[32.3.0]heptatriacontane-31,1′-cyclopentane]-2,5,8,11,14,17,20,23,27,30,33-undecone] ([NMeA]I[Sar][Sar][NMeCha][Sar][X74]P[Ac5c][NMeChg][NMeD]-Piperidide; lactam N-11) | 100 to 500
9 | CC[C@H](C)[C@@H]1NC(=O)[C@H](C)N(C)C(=O)C[C@@H](C(=O)N2CCCCC2)N(C)C(=O)[C@H](C2CCCCC2)N(C)C(=O)C2(CCCC2)NC(=O)[C@@H]2CCCN2C(=O)[C@H](CCc2cc(Cl)c(Cl)c(OC(C)C)c2)NC(=O)CN(C)C(=O)[C@H](CC2CCCCC2)N(C)C(=O)CN(C)C(=O)CN(C)C1=O [Compound 2062] ([NMeA]I[Sar][Sar][NMeCha][Sar][X60]P[Ac5c][NMeChg][NMeD]-Piperidide; lactam N-11; C-terminus assumed) | > 500
10 | CC[C@H](C)[C@@H]1NC(=O)[C@H](CC(C)C)N(C)C(=O)C[C@@H](C(=O)N2CCCCC2)N(C)C(=O)[C@H](C2CCCC2)N(C)C(=O)C2(CCCC2)NC(=O)[C@@H]2CCCN2C(=O)[C@H](CCc2ccc3occc3c2)NC(=O)CN(C)C(=O)[C@H](CC2CCCCC2)N(C)C(=O)[C@@H]2CCN2C(=O)[C@H](C)N(C)C1=O [Compound 2063] ([NMeL]I[NMeA][Aze][NMeCha][Sar][X86]P[Ac5c][NMeGly(cPent)][NMeD]-Piperidide; lactam N-11) | 50 to 100
11 | CC[C@H](C)[C@@H]1NC(=O)[C@H](CC(C)C)N(C)C(=O)C[C@@H](C(=O)N2CCCCC2)N(C)C(=O)[C@H](C2CCCC2)N(C)C(=O)C2(CCCC2)NC(=O)[C@@H]2CCCN2C(=O)[C@H](CCc2ccc3ccn(C)c3c2)NC(=O)CN(C)C(=O)[C@H](CC2CCCCC2)N(C)C(=O)[C@@H]2CCN2C(=O)[C@H](C)N(C)C1=O [Compound 2065] ([NMeL]I[NMeA][Aze][NMeCha][Sar][X16]P[Ac5c][NMeGly(cPent)][NMeD]-Piperidide; lactam N-11) | 100 to 500
12 | CC[C@H](C)[C@@H]1NC(=O)[C@H](CC(C)C)N(C)C(=O)C[C@@H](C(=O)N2CCCCC2)N(C)C(=O)[C@H](C2CCCC2)N(C)C(=O)C2(CCCC2)NC(=O)[C@@H]2CCCN2C(=O)[C@H](CCc2ccc(OC(F)(F)F)c(F)c2)NC(=O)CN(C)C(=O)[C@H](CC2CCCCC2)N(C)C(=O)[C@@H]2CCN2C(=O)[C@H](C)N(C)C1=O [Compound 2067] ([NMeL]I[NMeA][Aze][NMeCha][Sar][X58]P[Ac5c][NMeGly(cPent)][NMeD]-Piperidide; lactam N-11) | 20 to 50
13 | CC[C@H](C)[C@@H]1NC(=O)[C@H](CC(C)C)N(C)C(=O)C[C@@H](C(=O)N2CCCCC2)N(C)C(=O)[C@H](C2CCCC2)N(C)C(=O)C2(CCCC2)NC(=O)[C@@H]2CCCN2C(=O)[C@H](CCc2ccc3ncccc3c2)NC(=O)CN(C)C(=O)[C@H](CC2CCCCC2)N(C)C(=O)[C@@H]2CCN2C(=O)[C@H](C)N(C)C1=O [Compound 2070] ([NMeL]I[NMeA][Aze][NMeCha][Sar][X44]P[Ac5c][NMeGly(cPent)][NMeD]-Piperidide; lactam N-11) | > 500
